Where a name gives a salt, the structure may show the parent alone.
The molecules below were run against T1, KHK (Homo sapiens, UniProt P50053) (assay: coupled enzyme assay for KHK activity). Conditions: purified human recombinant KHK, PK/LDH coupled assay, A340 at 25° C., 0.1 mM ATP, 0.2 mM fructose; isoform (KHK-C or KHK-A) not given.
T1 construct: (His)6 tag (N); thrombin cleavage site (N); made in house; host or cells: E. coli BL-21 (DE3)
T1 sequence (P50053 1-298): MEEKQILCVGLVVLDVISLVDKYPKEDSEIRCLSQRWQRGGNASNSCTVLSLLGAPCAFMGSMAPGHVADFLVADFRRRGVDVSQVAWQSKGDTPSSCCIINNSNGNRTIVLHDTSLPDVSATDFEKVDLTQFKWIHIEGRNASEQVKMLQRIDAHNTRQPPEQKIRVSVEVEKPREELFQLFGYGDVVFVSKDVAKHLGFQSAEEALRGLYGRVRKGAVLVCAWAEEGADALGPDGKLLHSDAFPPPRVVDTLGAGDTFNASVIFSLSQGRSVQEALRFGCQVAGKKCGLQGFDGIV
Format: biochemical
Text: Specific coupled enzyme screening assays were developed for KHK-C and KHK-A using recombinant proteins. Purified human recombinant KHK-C and KHK-A were produced using by expression in E. coli BL-21 (DE3) using IPTG induction as a His-tagged fusion proteins and purified using Ni-NTA chromatography on His-Trap FF columns. For KHK-C, the coding region from NCBI refseq number NM_006488 was inserted at the Nde I site of pET28a(+) vector, which puts it downstream from an amino-terminal (His)6 tag and a thrombin cleavage site. The same was done for KHK-A using the coding regions from NCBI refseq number NM_000221.2. The protein was expressed in BL-21 (DE3) using IPTG induction and purified using Ni-NTA (GE His Trap FF) column. The protein was washed with 100 column volumes, eluted with 3 column volumes, and dialyzed with HEPES, pH 7.4 buffers containing 20, 500, and 0 mM imidazole, respectively. The dialysate was concentrated by ultrafiltration (10kD MWCO) to >15 mg/mL protein. The protein prep was >95% pure on SDS-PAGE and the molecular weight was confirmed by relative mobility to be 33,730 Da (34,826 expected).
The assay uses the product of the KHK reaction, ADP, to drive a signal measured in real time for measuring the reaction rate. This consists of a 3-step, coupled-enzyme process by which pyruvate kinase (PK), which converts the ADP from the KHK reaction along with phosphoenolpyruvate (PEP) to ATP and pyruvate, respectively. The pyruvate is converted along with NADH to lactate and NAD+ by lactate dehydrogenase (LDH). The disappearance of NADH is measured kinetically by monitoring A340 at 25° C. for 15 minutes. The enzymatic assay was carried out in a total reaction volume of 200 μL containing 33 mM triethanolamine-HCl, pH 7.4, 6 mM MgCl2, 100 mM KCl, 0.1 mM ATP, 1.33 mM PEP, 0.3 mM NADH, 0.2-1.0 U of PK, 0.2-1.0 U of LDH, and 150-240 nM KHK-C or KHK-A (0.01-0.02 U). Fructose was added to initiate the reactions to 0.2 mM, except for the no fructose controls which utilized water. This high-throughput assay was used to identify inhibitors that have an IC50 value<1 μM for KHK-C and to confirm that those values for KHK-A were not more than 2-fold lower.
In the case of `Cc1cccc(-n2ncc3ccc(NC(=O)C(N)C(=O)O)cc32)c1` (centres unmarked) [Compound 39, 2-amino-3-oxo-3-((1-(m-tolyl)-1H-indazol-6-yl)amino)propanoic acid hydrochloride], the IC50 is reported as 0.7 µM.
With `Cc1cccc(-n2ncc3ccc(NC(=O)[C@H]4C[C@@H](N)C4)cc32)c1` [Compound 16, (cis)-3-amino-N-(1-(m-tolyl)-1H-indazol-6-yl)cyclobutanecarboxamide hydrochloride] the IC50 was 0.6 µM.
For `Cc1cccc(-n2ncc3ccc(NC(=O)[C@@H](N)CCN)cc32)c1` [Compound 13, (S)-2,4-diamino-N-(1-(m-tolyl)-1H-indazol-6-yl)butanamide], the IC50 was 0.35 µM.
Molecule `Cc1cccc(-n2ncc3ncc(NC(=O)[C@@H](N)CO)cc32)c1` [Compound 45, (S)-2-amino-3-hydroxy-N-(1-(m-tolyl)-1H-pyrazolo[4,3-b]pyridin-6-yl)propanamide hydrochloride] has an IC50 of 0.25 µM.
`Cc1cccc(-n2ncc3ccc(NC(=O)[C@@H](N)[C@@H](C)O)cc32)c1` [Compound 20, (2S,3R)-2-amino-3-hydroxy-N-(1-(m-tolyl)-1H-indazol-6-yl)butanamide hydrochloride] was tested, and the IC50 was 0.72 µM.
In the case of `Cc1cccc(-n2ncc3ccc(NC(=O)[C@@H](N)[C@H](C)O)cc32)c1` [Compound 17, (2S,3S)-2-amino-3-hydroxy-N-(1-(m-tolyl)-1H-indazol-6-yl)butanamide hydrochloride], the IC50 is reported as 7 µM.
`Cc1cccc(-n2ncc3ccc(NC(=O)[C@@](C)(N)CO)cc32)c1` [Compound 22, (S)-2-amino-3-hydroxy-2-methyl-N-(1-(m-tolyl)-1H-indazol-6-yl)propanamide hydrochloride] gave an IC50 of 0.42 µM.
Work on `Cc1cccc(-n2ncc3cc(C)c(NC(=O)[C@@H](N)CO)cc32)c1` [Compound 42, (S)-2-amino-3-hydroxy-N-(5-methyl-1-(m-tolyl)-1H-indazol-6-yl)propanamide hydrochloride] yielded an IC50 of 1.8 µM.
`Cc1cccc(-n2nc(C(F)F)c3ccc(NC(=O)[C@@H](N)CO)cc32)c1` [Compound 48, (S)-2-amino-N-(3-(difluoromethyl)-1-(m-tolyl)-1H-indazol-6-yl)-3-hydroxypropanamide hydrochloride] showed an IC50 of 0.46 µM.
Work on `CCCCCCCC(=O)OC[C@H](NC(=O)OCC)C(=O)Nc1ccc2cnn(-c3cccc(C)c3)c2c1` [Compound 34, (S)-2-((ethoxycarbonyl)amino)-3-oxo-3-((1-(m-tolyl)-1H-indazol-6-yl)amino)propyl octanoate] yielded an IC50 of over 1000 µM.
Molecule `CCc1nn(-c2cccc(C)c2)c2cc(NC(=O)[C@@H](N)CO)c(C)cc12` [Compound 46, (S)-2-amino-N-(3-ethyl-5-methyl-1-(m-tolyl)-1H-indazol-6-yl)-3-hydroxypropanamide hydrochloride] has an IC50 of 1.9 µM.

— patent US20220194939A1, “Novel compounds and methods of use treating fructose-related disorders or diseases” (Colorado Research Partners, LLC, priority 2019, published 2022)
